Results on 3 compounds are retold here after ChEMBL document CHEMBL1201862, “PubChem BioAssay data set” (2004).

Test [1] has as its target Lethal factor (Bacillus anthracis, UniProt P15917). As to the kind of experiment: High-throughput multiplex microsphere dose response for inhibitors of toxin protease, specifically Lethal Factor protease, compounds from Powder Set 01. Format: functional, Bacillus anthracis str. A2012. Conditions: read-out: EC50_MICROM.
Test [2] concerns the target T1, Botulinum neurotoxin type A (Clostridium botulinum (strain Hall / ATCC 3502 / NCTC 13319 / Type A), UniProt P0DPI1). Nature of the test: High-throughput multiplex microsphere dose response for inhibitors of toxin protease, specifically Botulinum neurotoxin light chain A protease, compounds from Cherry Pick 01. The test is classed as functional. Conditions: read-out: EC50_MICROM.

Test [3] addresses T1, Botulinum neurotoxin type A. As to the kind of experiment: Confirmatory FRET assay using full length substrates for Botulinum neurotoxin light chain A protease, with Powder Set01. The test is classed as functional.
The target is the same in test [4]. As to the kind of experiment: High-throughput multiplex microsphere dose response for inhibitors of toxin protease, specifically Botulinum neurotoxin light chain A protease, compounds from Powder Set 01. Format: functional, Clostridium botulinum A str. ATCC 3502. Conditions: read-out: EC50_MICROM.
Test [5] deals with HEK293. Nature of the test: HEK cell cytotoxicity by LDH release, dose response, cytotoxicity control for IDE activator project, fluorescence, HEK cells (AID 588440).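 Also: cytotoxicity by LDH release measuring loss of membrane integrity.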 The test is classed as functional, cell-based. Conditions: Homo sapiens. A general note: LDH leaks from cells whose membrane has failed.
The target of test [6] is T2, Tyrosyl-DNA phosphodiesterase 2 (Homo sapiens, UniProt O95551).
T2 sequence (O95551 whole entry): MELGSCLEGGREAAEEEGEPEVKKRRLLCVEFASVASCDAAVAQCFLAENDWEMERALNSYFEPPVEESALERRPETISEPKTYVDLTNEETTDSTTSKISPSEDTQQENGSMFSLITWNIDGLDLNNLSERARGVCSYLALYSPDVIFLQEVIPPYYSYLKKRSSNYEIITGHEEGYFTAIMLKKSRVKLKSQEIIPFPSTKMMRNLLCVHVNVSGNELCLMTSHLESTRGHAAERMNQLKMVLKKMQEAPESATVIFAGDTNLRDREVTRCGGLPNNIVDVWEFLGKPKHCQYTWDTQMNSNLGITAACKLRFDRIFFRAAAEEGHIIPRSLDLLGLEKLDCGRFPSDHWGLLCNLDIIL
As to the kind of experiment: human TDP2 enzyme inhibitors, dose response, biochemical, epi absorbance, IC50 (AID 743297).

Test [7] deals with ORF 73 (Human herpesvirus 8, UniProt O40947). As to the kind of experiment: inhibitors of C-LANA binding to LBS DNA, dose response, biochemical, fluorescence polarization, cherry-picked samples (AID 504725).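 Also: fluorescence polarization of a labeled DNA duplex reporting LANA DNA binding; potency is for inhibitors that block LANA binding to the DNA.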 More on the design: species or system Human gammaherpesvirus 8. In general terms: In fluorescence polarisation assays a small probe gives low polarisation when free and higher when bound to something large.

In test [8] the target is T3, Insulin-degrading enzyme (Homo sapiens, UniProt P14735).
T3 sequence (P14735 whole entry): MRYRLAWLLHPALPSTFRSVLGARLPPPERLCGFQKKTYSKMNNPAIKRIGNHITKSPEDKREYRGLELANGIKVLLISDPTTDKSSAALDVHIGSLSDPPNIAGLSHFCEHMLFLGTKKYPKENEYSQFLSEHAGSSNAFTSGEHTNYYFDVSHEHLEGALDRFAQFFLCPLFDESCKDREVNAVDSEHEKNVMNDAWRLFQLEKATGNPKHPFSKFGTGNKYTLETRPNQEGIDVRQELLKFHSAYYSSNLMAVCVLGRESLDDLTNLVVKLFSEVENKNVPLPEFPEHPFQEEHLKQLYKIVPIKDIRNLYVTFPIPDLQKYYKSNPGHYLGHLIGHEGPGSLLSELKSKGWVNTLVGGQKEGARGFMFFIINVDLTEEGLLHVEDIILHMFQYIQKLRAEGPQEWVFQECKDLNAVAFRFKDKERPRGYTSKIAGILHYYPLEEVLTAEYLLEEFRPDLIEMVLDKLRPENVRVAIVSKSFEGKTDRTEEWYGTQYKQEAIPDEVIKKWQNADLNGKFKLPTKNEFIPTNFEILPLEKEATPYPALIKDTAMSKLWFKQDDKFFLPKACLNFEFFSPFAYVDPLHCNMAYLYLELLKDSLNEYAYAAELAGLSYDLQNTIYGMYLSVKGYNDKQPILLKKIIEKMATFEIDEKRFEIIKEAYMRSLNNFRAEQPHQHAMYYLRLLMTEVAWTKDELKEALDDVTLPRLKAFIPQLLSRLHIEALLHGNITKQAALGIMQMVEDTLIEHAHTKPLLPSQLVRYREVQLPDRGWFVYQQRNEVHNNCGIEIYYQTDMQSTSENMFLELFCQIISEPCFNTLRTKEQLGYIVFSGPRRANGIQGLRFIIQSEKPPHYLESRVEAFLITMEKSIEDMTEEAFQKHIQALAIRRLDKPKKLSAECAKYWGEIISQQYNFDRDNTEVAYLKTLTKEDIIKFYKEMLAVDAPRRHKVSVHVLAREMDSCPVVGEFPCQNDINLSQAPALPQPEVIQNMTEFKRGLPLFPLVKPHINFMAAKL
Nature of the test: activators of recombinant IDE enzyme, dose response, counter-screen for IDE activator project, biochemical, fluorescence polarization (AID 588681). A general note: The purpose of a counterscreen is to sort out artefacts and off-target activity.

Test [9] concerns the target T3, Insulin-degrading enzyme. As to the kind of experiment: activators of endogenous IDE in HEK cells, dose response, cell-based, fluorescence polarization (AID 588439). The test is classed as functional.
Test [10] has as its target T4, Rac GTPase-activating protein 1 (Homo sapiens, UniProt Q9H0H5).
T4 sequence (Q9H0H5 whole entry): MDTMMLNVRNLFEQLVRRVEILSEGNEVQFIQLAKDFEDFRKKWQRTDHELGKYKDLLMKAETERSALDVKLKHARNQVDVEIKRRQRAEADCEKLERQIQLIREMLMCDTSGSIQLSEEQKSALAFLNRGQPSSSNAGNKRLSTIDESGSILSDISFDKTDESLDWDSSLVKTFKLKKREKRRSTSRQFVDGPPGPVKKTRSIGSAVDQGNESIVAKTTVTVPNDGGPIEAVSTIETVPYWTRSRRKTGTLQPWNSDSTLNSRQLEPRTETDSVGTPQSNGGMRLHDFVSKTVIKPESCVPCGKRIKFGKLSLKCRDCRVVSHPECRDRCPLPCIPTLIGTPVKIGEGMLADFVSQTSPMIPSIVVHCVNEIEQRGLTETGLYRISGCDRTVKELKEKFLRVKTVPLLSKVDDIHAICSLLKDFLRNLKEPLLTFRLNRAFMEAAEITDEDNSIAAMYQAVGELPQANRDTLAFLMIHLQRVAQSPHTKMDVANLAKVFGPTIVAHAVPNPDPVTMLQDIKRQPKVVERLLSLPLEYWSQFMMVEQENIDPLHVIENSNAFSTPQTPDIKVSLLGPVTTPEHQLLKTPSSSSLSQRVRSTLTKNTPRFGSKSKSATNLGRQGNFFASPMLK
Nature of the test: MgcRacGAP GTPase-activating activity inhibitors, confirmation, biochemical, ADP Hunter fluorescence, primary and confirmatory (AID 624330). The test is classed as functional.

For test [11], the system named is HeLa. Nature of the test: HeLa cell cytotoxicity, dose response, cytotoxicity control, 24 h, cherry-picked samples (AID 504726).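 Also: potency for cytotoxicity as loss of luminescence signal.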 Format: functional, cell-based, Homo sapiens.
Test [12] concerns the target Mitogen-activated protein kinase kinase kinase kinase 4 (Homo sapiens, UniProt O95819). The test is classed as functional.
For test [13], the target named is Cytochrome P450 3A4 (Homo sapiens, UniProt P08684). Conditions: Potency.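 Also: confirmatory qHTS run detecting inhibitors and substrates of CYP3A4.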
For test [14], the target named is Misshapen-like kinase 1 (Homo sapiens, UniProt Q8N4C8). Format: functional.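 Also: kinome panel screen with MINK as the panel member.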
Test [15] deals with MAP kinase-activated protein kinase 2 (Homo sapiens, UniProt P49137). The test is classed as functional.
In test [16] the target is Serine/threonine-protein kinase pim-3 (Homo sapiens, UniProt Q86V86). The test is classed as functional.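 Also: value obtained as one member of a broad kinase panel profiling effort.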

The structures appear in SMILES notation. Active and inactive are the calls of the source.

T1 sequence (P0DPI1 2-448 limits assumed): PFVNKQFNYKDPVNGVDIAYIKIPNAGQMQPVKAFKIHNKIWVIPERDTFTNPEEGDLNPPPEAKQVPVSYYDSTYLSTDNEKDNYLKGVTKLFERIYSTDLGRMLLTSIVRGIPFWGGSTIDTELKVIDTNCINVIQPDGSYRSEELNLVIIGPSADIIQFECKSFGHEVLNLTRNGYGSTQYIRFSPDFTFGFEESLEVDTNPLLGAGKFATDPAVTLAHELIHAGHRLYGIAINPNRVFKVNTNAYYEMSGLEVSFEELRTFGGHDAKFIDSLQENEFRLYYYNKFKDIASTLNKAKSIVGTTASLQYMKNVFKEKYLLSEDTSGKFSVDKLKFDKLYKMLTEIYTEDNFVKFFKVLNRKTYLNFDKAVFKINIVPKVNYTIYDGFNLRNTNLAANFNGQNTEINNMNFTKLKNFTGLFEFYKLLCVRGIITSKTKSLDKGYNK
ORF 73, sequence (O40947 whole entry): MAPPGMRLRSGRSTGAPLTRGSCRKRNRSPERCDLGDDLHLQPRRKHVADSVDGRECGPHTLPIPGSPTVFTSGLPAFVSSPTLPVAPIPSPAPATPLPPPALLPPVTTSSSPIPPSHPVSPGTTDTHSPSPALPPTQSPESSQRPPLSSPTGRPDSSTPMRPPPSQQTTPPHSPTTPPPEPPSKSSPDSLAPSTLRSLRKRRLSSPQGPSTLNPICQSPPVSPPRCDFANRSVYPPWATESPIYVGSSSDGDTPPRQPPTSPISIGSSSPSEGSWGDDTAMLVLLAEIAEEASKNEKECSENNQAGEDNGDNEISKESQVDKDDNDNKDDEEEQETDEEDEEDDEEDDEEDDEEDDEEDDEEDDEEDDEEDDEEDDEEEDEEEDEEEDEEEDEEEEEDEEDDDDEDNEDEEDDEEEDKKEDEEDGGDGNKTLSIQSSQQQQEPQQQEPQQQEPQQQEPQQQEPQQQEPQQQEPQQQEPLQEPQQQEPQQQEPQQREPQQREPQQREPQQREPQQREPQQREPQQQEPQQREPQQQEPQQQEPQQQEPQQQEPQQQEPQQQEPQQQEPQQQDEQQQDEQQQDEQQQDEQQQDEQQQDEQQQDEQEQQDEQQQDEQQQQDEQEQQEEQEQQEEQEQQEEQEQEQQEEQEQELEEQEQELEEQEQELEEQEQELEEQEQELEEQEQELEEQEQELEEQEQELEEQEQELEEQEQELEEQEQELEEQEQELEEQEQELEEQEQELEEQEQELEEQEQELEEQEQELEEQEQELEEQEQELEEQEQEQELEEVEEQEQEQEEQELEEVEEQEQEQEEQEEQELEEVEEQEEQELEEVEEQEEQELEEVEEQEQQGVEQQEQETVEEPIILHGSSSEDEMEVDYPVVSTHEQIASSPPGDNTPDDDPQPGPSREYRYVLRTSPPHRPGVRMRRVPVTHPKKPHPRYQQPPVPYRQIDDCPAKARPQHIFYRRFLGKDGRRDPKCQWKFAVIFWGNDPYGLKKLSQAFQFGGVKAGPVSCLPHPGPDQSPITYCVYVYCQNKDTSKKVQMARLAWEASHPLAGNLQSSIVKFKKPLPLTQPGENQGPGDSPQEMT
Misshapen-like kinase 1, sequence (Q8N4C8 whole entry): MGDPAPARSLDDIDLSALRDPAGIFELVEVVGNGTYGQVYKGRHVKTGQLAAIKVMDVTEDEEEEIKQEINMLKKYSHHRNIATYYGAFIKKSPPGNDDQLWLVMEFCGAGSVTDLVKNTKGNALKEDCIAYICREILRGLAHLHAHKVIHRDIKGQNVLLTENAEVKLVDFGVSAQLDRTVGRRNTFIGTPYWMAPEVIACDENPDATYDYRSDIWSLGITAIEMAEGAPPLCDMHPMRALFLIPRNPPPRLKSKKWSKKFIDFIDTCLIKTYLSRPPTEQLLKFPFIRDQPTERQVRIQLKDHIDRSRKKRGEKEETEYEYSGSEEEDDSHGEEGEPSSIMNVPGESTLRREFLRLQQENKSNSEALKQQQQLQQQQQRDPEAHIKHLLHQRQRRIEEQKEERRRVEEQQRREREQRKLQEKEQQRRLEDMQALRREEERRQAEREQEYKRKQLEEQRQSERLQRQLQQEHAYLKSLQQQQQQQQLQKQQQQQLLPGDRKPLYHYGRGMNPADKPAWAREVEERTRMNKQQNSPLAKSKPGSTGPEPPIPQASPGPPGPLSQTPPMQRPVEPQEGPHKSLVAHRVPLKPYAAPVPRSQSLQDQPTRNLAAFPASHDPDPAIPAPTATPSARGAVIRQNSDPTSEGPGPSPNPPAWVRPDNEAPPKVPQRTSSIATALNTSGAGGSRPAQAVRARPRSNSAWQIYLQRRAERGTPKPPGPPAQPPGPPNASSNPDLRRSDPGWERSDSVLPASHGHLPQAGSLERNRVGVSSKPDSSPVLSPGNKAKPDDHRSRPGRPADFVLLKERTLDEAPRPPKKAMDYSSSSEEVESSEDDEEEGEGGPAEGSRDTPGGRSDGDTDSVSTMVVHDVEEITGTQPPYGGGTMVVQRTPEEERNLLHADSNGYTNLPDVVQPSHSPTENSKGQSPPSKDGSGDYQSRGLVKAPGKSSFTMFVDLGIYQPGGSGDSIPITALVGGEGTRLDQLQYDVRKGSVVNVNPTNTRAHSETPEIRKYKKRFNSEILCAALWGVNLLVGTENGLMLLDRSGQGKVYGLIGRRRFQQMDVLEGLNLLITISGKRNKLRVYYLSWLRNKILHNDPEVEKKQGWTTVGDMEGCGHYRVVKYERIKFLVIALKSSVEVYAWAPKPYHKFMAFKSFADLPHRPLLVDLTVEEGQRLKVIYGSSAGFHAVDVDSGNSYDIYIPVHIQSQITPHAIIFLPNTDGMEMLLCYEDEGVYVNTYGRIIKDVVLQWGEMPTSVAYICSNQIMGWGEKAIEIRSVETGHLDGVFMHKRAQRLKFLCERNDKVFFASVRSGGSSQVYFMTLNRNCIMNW
Cytochrome P450 3A4, sequence (P08684 whole entry): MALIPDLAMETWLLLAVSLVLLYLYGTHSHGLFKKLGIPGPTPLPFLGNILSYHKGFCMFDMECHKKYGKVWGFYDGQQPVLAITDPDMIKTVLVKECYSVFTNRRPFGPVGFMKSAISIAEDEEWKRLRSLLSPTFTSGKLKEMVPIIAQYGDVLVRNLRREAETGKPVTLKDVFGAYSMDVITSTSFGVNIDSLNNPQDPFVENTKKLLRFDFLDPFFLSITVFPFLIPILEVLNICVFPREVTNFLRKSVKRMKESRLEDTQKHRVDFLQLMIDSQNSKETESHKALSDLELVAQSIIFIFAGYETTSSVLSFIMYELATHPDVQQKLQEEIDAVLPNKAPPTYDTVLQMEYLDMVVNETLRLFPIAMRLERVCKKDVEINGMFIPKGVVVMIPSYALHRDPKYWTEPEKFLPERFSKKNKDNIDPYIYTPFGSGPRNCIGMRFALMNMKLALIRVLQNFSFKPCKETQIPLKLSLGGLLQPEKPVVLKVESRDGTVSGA
MAP kinase-activated protein kinase 2, sequence (P49137 whole entry): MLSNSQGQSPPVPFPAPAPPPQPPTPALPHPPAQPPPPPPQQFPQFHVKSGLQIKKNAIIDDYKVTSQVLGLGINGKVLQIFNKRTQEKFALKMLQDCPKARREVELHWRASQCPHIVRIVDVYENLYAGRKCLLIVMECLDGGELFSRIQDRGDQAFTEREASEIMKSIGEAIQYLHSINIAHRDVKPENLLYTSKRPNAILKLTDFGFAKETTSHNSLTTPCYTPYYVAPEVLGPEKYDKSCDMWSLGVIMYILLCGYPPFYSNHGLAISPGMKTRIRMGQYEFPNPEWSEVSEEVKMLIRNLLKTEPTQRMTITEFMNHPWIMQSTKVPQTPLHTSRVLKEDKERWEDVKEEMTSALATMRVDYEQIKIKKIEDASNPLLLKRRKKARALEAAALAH
Lethal factor, sequence (P15917 whole entry): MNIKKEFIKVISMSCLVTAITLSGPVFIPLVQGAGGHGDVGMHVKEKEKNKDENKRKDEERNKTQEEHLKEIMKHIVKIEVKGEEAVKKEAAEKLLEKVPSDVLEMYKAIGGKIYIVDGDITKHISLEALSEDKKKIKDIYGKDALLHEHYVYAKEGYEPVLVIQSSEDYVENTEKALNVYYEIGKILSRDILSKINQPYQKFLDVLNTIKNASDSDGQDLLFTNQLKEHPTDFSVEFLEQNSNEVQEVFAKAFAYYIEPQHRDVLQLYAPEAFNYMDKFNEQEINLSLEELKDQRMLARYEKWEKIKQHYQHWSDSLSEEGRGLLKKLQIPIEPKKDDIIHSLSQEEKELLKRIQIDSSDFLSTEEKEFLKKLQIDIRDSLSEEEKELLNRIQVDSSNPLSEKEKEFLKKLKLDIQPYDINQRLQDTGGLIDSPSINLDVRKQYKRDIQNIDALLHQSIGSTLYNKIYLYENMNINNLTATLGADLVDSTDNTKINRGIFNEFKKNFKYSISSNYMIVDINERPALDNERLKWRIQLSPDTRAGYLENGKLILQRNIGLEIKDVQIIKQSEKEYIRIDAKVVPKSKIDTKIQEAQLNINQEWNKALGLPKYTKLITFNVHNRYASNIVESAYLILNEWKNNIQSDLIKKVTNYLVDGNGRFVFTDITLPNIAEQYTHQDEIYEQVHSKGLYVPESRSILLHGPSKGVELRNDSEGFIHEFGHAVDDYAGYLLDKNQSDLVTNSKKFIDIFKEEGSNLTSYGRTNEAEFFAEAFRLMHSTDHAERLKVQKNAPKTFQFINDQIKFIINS

Take `O=C(Nc1ccc2nc(-c3cccs3)c(-c3cccs3)nc2c1)NC1CC1`: the EC50 in [1] was 1.6 µM (active); in test [2], 12.3 µM (active); in test [3], 0.6 µM (active); in test [4], 1.5 µM (active).
Usually IC50 stands for the concentration at which inhibition is half-maximal. By AC50 is commonly meant the midpoint of the concentration-response curve, whichever way the signal moves. On to `C[n+]1c2cc(N)ccc2cc2ccc(N)cc21`, for which the figures for the IC50 in test [5], in [6] and in [10] were > 89.2 µM (inactive), > 128 µM (inactive) and 97.5 µM (active), respectively. Besides, the figures for the AC50 in test [7] and in [11] were 0.285 µM (active) and 7.94 µM (active), respectively. Further, the EC50 in test [8] and in [9] was > 54.7 µM (inactive) in each case.
By Ki is commonly meant the dissociation constant of the complex between target and ligand, obtained from inhibition or displacement. Turning to `Oc1ccc(Nc2nc(-c3ccc(Cl)cc3)cs2)cc1`, the Ki in test [12] was 1 µM (active); in test [14], 2.51 µM (active); in [15], 7.94 µM (active); in [16], 3.16 µM (active). Besides, in test [13], the concentration at half-maximal activity (AC50) is 25.1 µM (inconclusive).
